Earlier results on 1 compound are cited in US12171873B2, “Devices and methods for delivery of substances to animals” (Ruminant Biotech Corp Limited, priority 2020, dated 2024).

Each structure is given as a SMILES string.

For data set [1] the following is noted: in vivo.
For data set [2] the following is noted: slaughtered steers, after 48 hour with holding period.

As to `BrC(Br)Br` [Bromoform, bromoform], the level in milk result in data set [1] is recorded as “no significant increase”. In addition, the “residues in meat and tissue” value in data set [2] is listed as “no residues”.
